Experimental data reported in PubChem BioAssay AID1996.
Converted amounts (≈) assume the structure as drawn.

conditions: buffer; pH 7.4; 200.0 µM

Structure (SMILES)	solubility kinetic [µg/mL]
Cc1[nH]c(=O)[nH]c(=O)c1S(=O)(=O)Nc1ccc(F)cc1Cl	> 50.1
Cc1ccnc(SCC(=O)c2cc3ccccc3o2)n1	1.3 (≈ 4.57 µM)
CCC1(c2ccc(F)cc2)NC(=O)N(CC(=O)Nc2ccc3c(c2)OCCO3)C1=O (centres undefined)	16 (≈ 38.7 µM)
Nc1ccc(C(=O)Nc2cccc3ncccc23)cc1	37.3 (≈ 142 µM)
CCN1C(=O)CC(c2ccc(OC(C)C)cc2)C1=O (centres undefined)	> 39.2
CCCCC(=O)N(Cc1ccc(F)cc1)C1CCS(=O)(=O)C1 (centres undefined)	46.9 (≈ 143 µM)
Cc1ccc(NC(=O)CN2C(=O)NC(C)(CC(C)C)C2=O)c(Br)c1 (centres undefined)	55.5 (≈ 140 µM)
Cc1cc(C(=O)NCc2ccc3c(c2)OCO3)c(C)o1	> 41
Cc1ccc(C(=O)Nc2ccc3c(c2)C(=O)N(CC2CCCO2)C3=O)cc1 (centres undefined)	1 (≈ 2.74 µM)
O=C(COC(=O)c1ccc(Cl)nc1)NCc1ccc(F)cc1	14.3 (≈ 44.3 µM)
CNc1snc(C)c1C(=O)OCC(=O)NCc1ccccc1OC	3.8 (≈ 10.9 µM)
Cc1cc(/C(N)=N/OC(=O)Nc2ccc(Cl)cc2)no1	15.9 (≈ 54 µM)
COC(=O)c1cccc(NC(=O)NC(=O)c2ccccc2Cl)c1	0.6 (≈ 1.8 µM)
O=C1C(=O)N(CC2COc3ccccc3O2)c2ccccc21 (centres undefined)	40.6 (≈ 137 µM)
O=C(NNC(=O)c1ccncc1)c1ccccc1	> 36.2
CC(=O)c1ccc(NC(=O)Nc2cccc3ccccc23)cc1	0.4 (≈ 1.31 µM)
C=CCN1C(=O)C(C)NC1=S (centres undefined)	> 25.5
COc1ccc(CC(=O)NCc2ccc3c(c2)cc(C)n3C)cc1OC	20.8 (≈ 59 µM)
O=c1[nH]c(-c2ccccc2)ncc1Oc1ccccc1	33.7 (≈ 128 µM)
O=C1NC(=O)/C(=C/c2ccccn2)S1	> 30.9
CC1=C(C)CC(C(=O)Nc2nc(C)cs2)C(C(=O)O)C1 (centres undefined)	> 44.2
Cc1ccc(C(=O)NC23CC4CC(CC(C4)C2)C3)c(Cl)c1	0.7 (≈ 2.3 µM)
Cc1ccc(C(C)NC(=O)c2ccncc2)c(C)c1 (centres undefined)	> 38.1
O=C(COc1ccccc1)N1CCN=C1SCc1ccccc1	14.3 (≈ 43.8 µM)

Structure (SMILES)	solubility kinetic [µg/mL]
O=c1c2ccccc2nc2n1C(CBr)CS2 (centres undefined)	> 44.6
CCOc1ccc(N2CC(C(=O)Nc3ccncc3)CC2=O)cc1 (centres undefined)	> 48.8
COc1ccc(C(=O)Nc2nc(C)cc(C)n2)cc1	> 38.6
NC(=O)C1CCN(C(=O)c2cc3c(s2)CCCC3)CC1	43.7 (≈ 149 µM)
CC(C)c1ccc(C(=O)OCC(=O)c2c(N)n(C)c(=O)n(C)c2=O)cc1	4.4 (≈ 12.2 µM)
COc1c(C)cc(S(=O)(=O)N2CCOCC2)c(C)c1C	> 44.9
Cc1ccc(S(=O)(=O)/N=C(\N)c2ccc(Cl)cc2)cc1	> 46.3
COc1ccc(/C=C/c2nc(-c3ccccc3)cc(=O)[nH]2)cc1	< 0.3
O=C(Nc1ccncc1)Nc1ccc(F)cc1	29.9 (≈ 129 µM)
O=C1CCC(=O)N1c1ccc(S(=O)(=O)N2CCCC2)cc1	45.4 (≈ 147 µM)
CCC(=NCCc1ccc(OC)c(OC)c1)c1ccccc1O	> 47
CN(CCc1ccccn1)c1ccc([N+](=O)[O-])cn1	38.1 (≈ 148 µM)
O=C(/C=C/c1ccccc1)Oc1cccc2cccnc12	20.2 (≈ 73.4 µM)
O=C(Nc1ccccc1Cl)c1ccccc1	19.2 (≈ 82.9 µM)
C#Cc1ccc(CN2CCN(CCCc3ccccc3)C(CCO)C2)cc1 (centres undefined)	36.9 (≈ 102 µM)
COc1ccc(C(=O)NCc2c(C)oc(C)c2C(=O)O)cc1	> 45.5
Cc1cccc(C)c1NC(=O)COC(=O)c1ccc([N+](=O)[O-])o1	34.3 (≈ 108 µM)
CN(C)c1ccc(C(=O)OCC(=O)NCCC2=CCCCC2)cc1	4.7 (≈ 14.2 µM)
COC(=O)c1cn(-c2cccc(C)n2)cn1	> 32.6
CC(C)(C)N/C=C(\C#N)S(=O)(=O)c1ccc(Br)cc1	7.7 (≈ 22.4 µM)
COc1ccc(C(=O)C2CCCN(C(=O)c3cnsn3)C2)c(C)c1 (centres undefined)	40 (≈ 116 µM)
Cn1c(N)c(C(=O)COC(=O)/C=C/c2cccc(Cl)c2)c(=O)n(C)c1=O	3.3 (≈ 8.74 µM)
Cc1cccc(C(=O)O/N=C(\N)c2ccccn2)c1	> 38.3
Cc1ccc(S(=O)(=O)NCCc2cccs2)cc1	> 42.2

Structure (SMILES)	solubility kinetic [µg/mL]
Cc1ccc(C(C[N+](=O)[O-])Sc2ccc(N)cc2)cc1 (centres undefined)	21.4 (≈ 74.2 µM)
CCN(Cc1ccncc1)C(=O)c1ccc(Br)o1	> 46.4
COC(=O)c1[nH]c2cc(OC)ccc2c1N=CN(C)C	38.4 (≈ 139 µM)
O=C1CCC(C(=O)OCC(=O)Nc2ccc(Cl)cc2C(F)(F)F)=NN1	> 56.7
O=C(O)/C=C/C(=O)NC1CC1	> 23.3
Cc1ccc(NC(=O)C(C)N2C(=O)c3ccccc3C2=O)c(C)c1 (centres undefined)	29.7 (≈ 92.1 µM)
CCn1cc(S(=O)(=O)N2CCc3ccccc3C2)cn1	> 43.7
Cc1ccc(C(=O)NC(=S)N(C)Cc2ccccc2)cc1	2 (≈ 6.7 µM)
CN(C)S(=O)(=O)c1ccc(C(=O)OCCc2ccccc2)cc1	0.9 (≈ 2.7 µM)
Cc1nc2ccc([N+](=O)[O-])cc2s1	19.4 (≈ 99.9 µM)
Cc1noc(C)c1C(=O)OC(C)C(=O)N(C)c1ccccc1 (centres undefined)	> 45.3
Cc1ccnc(NC(=O)c2cccc(S(=O)(=O)Nc3ccc(C)cc3C)c2)c1	10.7 (≈ 27.1 µM)
CCN(CC)c1ccc(S(=O)(=O)N2CCOCC2)cc1NC(=O)Nc1ccccc1	2.2 (≈ 5.09 µM)
COc1ccccc1CC(=O)N1CCN(CCc2ccccc2)CC1	> 50.8
O=CNCCCc1nc2ccccc2n1CCc1ccccc1	> 46.1
O=C(CCC1CCN(Cc2ccccc2O)CC1)NC1CC1	42.6 (≈ 141 µM)
CC(C)(Cc1ccc(O)cc1)NC(=O)c1ccccc1	36.7 (≈ 136 µM)
Cc1ccc(NS(=O)(=O)c2ccc(C(=O)NCCN3CCOCC3)cc2)cc1.Cl	> 66
CC(=O)NCCNC(=O)c1ccc(-n2c(C)ccc2C)cc1	35.3 (≈ 118 µM)
COc1ccccc1Oc1coc2cc(OCC(N)=O)ccc2c1=O	47.8 (≈ 140 µM)
Cc1ccc(OCc2ccc([N+](=O)[O-])cc2)c([N+](=O)[O-])n1	1.1 (≈ 3.8 µM)
O=C(NCCCNC(=O)c1ccccn1)c1ccc(Cl)cc1	39 (≈ 123 µM)
C=CCNc1nc2c(c(=O)[nH]c(=O)n2C)n1CCCc1ccccc1	5.2 (≈ 15.3 µM)
CCc1c(C)nc(N2CCN(c3ccc(OC)cc3)CC2)[nH]c1=O	5.5 (≈ 16.7 µM)

Structure (SMILES)	solubility kinetic [µg/mL]
Cc1ccc(-c2nc(C#N)c(N3CCC(C)CC3)o2)cc1	< 0.2
NC(=NCc1ccco1)NC(=O)c1ccccc1	> 36.5
O=C(COC(=O)c1ccc(Br)c(S(=O)(=O)N2CCOCC2)c1)NC1CC1	> 67.1
CCCn1c(=O)c2c(nc3n2CCCN3Cc2ccccc2)n(C)c1=O	17.6 (≈ 49.8 µM)
COc1cc(CCC(=O)OCC(=O)NCCc2ccc(S(N)(=O)=O)cc2)cc(OC)c1OC	> 72.1
CC1CCN(C(=O)c2ccc(NC(=O)c3ccccc3)cc2)CC1	> 48.4
C=C(C)c1cccc(C(C)(C)NC(=O)Nc2ccc(OC)nc2)c1	14 (≈ 43 µM)
O=S(=O)(/N=C(/Nc1nccs1)c1ccc(F)cc1)c1ccccc1	5 (≈ 13.8 µM)
CCc1noc(C)c1C(=O)Nc1ccc(C(F)(F)F)cc1	7.5 (≈ 25.1 µM)
CC1CN(c2nc(N(C)c3ccccc3)nc(N)c2[N+](=O)[O-])CC(C)O1 (centres undefined)	28.6 (≈ 79.8 µM)
COc1ccc(OC)c2c1sc(=NC(=O)C1COc3ccccc3O1)n2C (centres undefined)	< 0.4
CCOc1ccc(CNCCc2ccc3c(c2)OCO3)cc1	> 44.9
N/C(=N\OC(=O)/C=C/c1ccccc1)c1ccc(Cl)cc1	1.3 (≈ 4.32 µM)
COc1ccc(/C(N)=N/OC(=O)c2ccc(OC)c([N+](=O)[O-])c2)cc1OC	0.6 (≈ 1.6 µM)
CC1CCCC(NC(=O)C2CC(=O)N(Cc3ccccc3)C2)C1C (centres undefined)	37.4 (≈ 114 µM)
O=C(N/N=C/c1ccccc1O)C(=O)N1CCCCCC1	> 43.4
O=C(Nc1nccs1)c1c(O)c2c([nH]c1=O)CCCC2	0.9 (≈ 3.09 µM)
CC(C)Cc1nc(N2CCNCC2)c(C#N)c2c1CCC2	41.1 (≈ 145 µM)
CCn1c(=O)c2sccc2n(Cc2cccc(C)c2)c1=O	9 (≈ 30 µM)
CCOc1cc(/C=C2\N=C(C)OC2=O)cc(Cl)c1OCC(=O)OC	23.1 (≈ 65.3 µM)
CC(=O)N(CCC(c1ccco1)C(C)C)Cc1ccc(OC(C)C)cc1 (centres undefined)	19.5 (≈ 54.5 µM)
O=[N+]([O-])c1ccc(Sc2ncc3ccccn23)nc1	20.6 (≈ 75.7 µM)
NC(=O)CCC1NC(=S)N(Cc2ccccc2)C1=O (centres undefined)	32.6 (≈ 118 µM)
CCCN1CN(c2ccccc2)C(=S)N(c2ccccc2)C1	> 46.7

Structure (SMILES)	solubility kinetic [µg/mL]
O=C(CSc1nc2ccccc2o1)NC1CCS(=O)(=O)C1 (centres undefined)	> 49
Cc1ccc(-n2c(C)nnc2SC(C)C(=O)N2CCCC2)cc1 (centres undefined)	> 49.6
CC(=O)c1cccc(NC(=O)COC(=O)Cn2cnc3ccccc32)c1	> 52.7
Cc1cccn2c(=O)c(C=O)c(NCc3ccccc3)nc12	0.2 (≈ 0.682 µM)
CCOC(=O)c1sc(=S)n(-c2ccc(OC)cc2)c1N	2 (≈ 6.44 µM)
OC(CNCc1cccs1)c1ccccc1 (centres undefined)	> 35
Cc1cc(C(=O)NC(=S)Nc2cccc(C(=O)O)c2C)ccc1[N+](=O)[O-]	> 56
Cc1nc(N)[nH]c(=O)c1Oc1cccc(C(F)(F)F)c1	35.6 (≈ 125 µM)
Cc1cc(=O)[nH]c(SCc2cn3ccccc3n2)n1	> 40.8
NC(=S)Nc1ccc(Cl)cc1Cl	32.9 (≈ 149 µM)
O=C1c2ccccc2C2(c3ccccc3)NCCCN12 (centres undefined)	> 39.6
CN[C@H](CC(=O)O)C(=O)O	> 22.1
CC(=O)Nc1ccc(-c2nc3ccccc3o2)cc1	1.3 (≈ 5.15 µM)
Cc1c(C=Nc2ccc(S(=O)(=O)CCO)cc2)c(O)[nH]c(=O)c1C#N	> 54.2
COc1ccc(-c2cc(C(=O)Nc3ccc(F)cc3F)no2)cc1	< 0.4
CNc1snc(C)c1C(=O)OC(C)C(=O)Nc1ccccc1 (centres undefined)	34.5 (≈ 108 µM)
O=Cc1ccc(C(=O)OCC(=O)N2CCCC2)cc1	36.3 (≈ 139 µM)
COc1ccc(/C=N/NC(=O)c2ccccc2O)cc1CN1CCOCC1	> 55.4
O=C(CCl)N(CCCNC(=O)C(F)(F)F)c1ccc([N+](=O)[O-])cc1	> 55.2
CSc1ccccc1NC(=O)Nc1cccc(Cl)c1C	0.5 (≈ 1.63 µM)
O=C(CCCc1cccs1)Nc1ccc2c(c1)OCO2	39.2 (≈ 135 µM)
CC(C)Oc1ccccc1C1NC(=O)CCC1[N+](=O)[O-] (centres undefined)	> 41.7
Cc1ccc(C)c(NC(=O)CC2Oc3ccccc3NC2=O)c1 (centres undefined)	1.1 (≈ 3.54 µM)
